Source: patent US8404677B2, “Kinase inhibitors” (Genosco, priority 2009, dated 2013)

Legend:
SK-OV-3 = assay: cells; format: cell-based; settings: SK-OV-3 (Ovarian Cancer)
NCI-H522 = assay: cells; format: cell-based; settings: NCI-H522 (NSCLC)
HCT-116 = assay: cells; format: cell-based; settings: HCT-116 (Colon Cancer)
SN12C = assay: cells; format: cell-based; settings: SN12C (Renal Cancer)
[1] = tested on: SN4741 cells overexpressing LRRK2 G2019S; assay: Neuroprotection from LRRK2-mediated dopaminergic cell death (H2O2, crystal violet); format: cell-based, murine; settings: for Percent Cell Death: 100 μM hydrogen peroxide
Procedure: (§1) SN4741, a murine dopaminergic cell line were cultured in DMEM containing 10 FBS at 37° C., respectively. SN4741 cells (1.5×10^4/well) were seeded in 48 well plates 1 day before transient transfection with 1 μg of the pcDNA3.1 plasmids of either vector, LRRK wildtype cDNA, LRRK G2019S cDNA, by standard CaCl2 precipitation. Two days after transfection, cells were treated with 100 μM hydrogen peroxide for 1 day and cell viability was measured by crystal violet assay. For compound treatment, the test compounds were added at 0.05 μM, 0.5 μM and 5 μM and the cells were incubated for 1 hour prior to the addition of hydrogen peroxide.
(§2) SN4741 cells were transfected with plasmids containing the LRRK2 wild-type or G2019S and incubated them for 2 days followed by addition of 100 μM of hydrogen peroxide for 24 h to sensitize them to oxidative stress. Cell survival was assessed using the crystal violet.

[2] = tested on: SN4741 cells transfected with vector; assay: as above; format: cell-based, murine; settings: 100 μM hydrogen peroxide
Procedure: as §1, §2

[3] = tested on: SN4741 cells overexpressing LRRK2 wild-type; assay: as above; format: cell-based, murine; settings: for Percent Cell Death: LRRK2 WT, 100 μM hydrogen peroxide
Procedure: as §1, §2

RXF 393 = assay: cells; format: cell-based; settings: RXF 393 (Renal Cancer)
786-0 = assay: cells; format: cell-based; settings: 786-0 (Renal Cancer)
HCC-2998 = assay: cells; format: cell-based; settings: HCC-2998 (Colon Cancer)
UACC-62 = assay: cells; format: cell-based; settings: UACC-62 (Melanoma)
A549/ATCC = assay: cells; format: cell-based; settings: A549/ATCC (NSCLC)
MDA-MB-435 = assay: cells; format: cell-based; settings: MDA-MB-435 (Melanoma)
[4] = Homo sapiens, read-out: LC50 (the source's name)

Molecule `O=c1[nH]ccc2nc(N3CCC(O)CC3)nc(Nc3cccc(C(F)(F)F)c3)c12` [Compound 6, 2-(4-hydroxypiperidin-1-yl)-4-(3-(trifluoromethyl)phenylamino)pyrido[4,3-d]pyrimidine-5(6H)-one] has a GI50 (SK-OV-3; Homo sapiens) of 0.49 µM, an IC50 (SK-OV-3; Homo sapiens) of 20 µM and a CC50 (SK-OV-3; [4]) of 100 µM. The TGI (SK-OV-3) was 100 µM, the GI50 (NCI-H522; Homo sapiens) was 2.34 µM and the IC50 (NCI-H522; Homo sapiens) was 7.59 µM. For the same molecule, the CC50 (NCI-H522; [4]) was 34.7 µM, the TGI (NCI-H522) was 10 µM and the TGI (HCT-116) was 12.3 µM. For the same molecule, the GI50 (HCT-116; Homo sapiens) was 0.871 µM, the IC50 (HCT-116; Homo sapiens) was 1.32 µM and the CC50 (HCT-116; [4]) was 75.9 µM. The GI50 (SN12C; Homo sapiens) was 4.07 µM, the IC50 (SN12C; Homo sapiens) was 12.9 µM and the CC50 (SN12C; [4]) was 100 µM. The TGI (SN12C) was 100 µM, the “Percent Cell Death” value ([1]; 0.05 uM) was 53.5% and the “Percent Cell Death” value ([1]; 0.5 uM) was 56.9%. The “Percent Cell Death” value ([1]; 5 uM) was 45.8%, the “protective effects against LRRK2-associated cell death” value ([1]; at 0.05 uM and higher, vs vector, DMSO or H2O2 controls) was “increased protective effects” and the “Percent Cell Death” value ([2]; 0.05 uM) was 54.2%. The “Percent Cell Death” value ([2]; 0.5 uM) was 57.5%, the “Percent Cell Death” value ([2]; 5 uM) was 42.5% and the “Percent Cell Death” value ([3]; 0.05 uM) was 62.2%. For the same molecule, the “Percent Cell Death” value ([3]; 0.5 uM) was 62.2%, the “Percent Cell Death” value ([3]; 5 uM) was 49.7% and the “protective effects against LRRK2-associated cell death” value ([3]; LRRK2 wild-type, at 0.05 uM and higher, vs vector, DMSO or H2O2 controls) was “increased protective effects”. The GI50 (RXF 393; Homo sapiens) was 1.45 µM, the IC50 (RXF 393; Homo sapiens) was 21.4 µM and the CC50 (RXF 393; [4]) was 100 µM. The TGI (RXF 393) was 23.4 µM, the TGI (786-0) was 100 µM and the GI50 (786-0; Homo sapiens) was 2.04 µM. The IC50 (786-0; Homo sapiens) was 8.13 µM, the CC50 (786-0; [4]) was 100 µM and the TGI (HCC-2998) was 38 µM. The GI50 (HCC-2998; Homo sapiens) was 11.2 µM, the IC50 (HCC-2998; Homo sapiens) was 25.1 µM and the CC50 (HCC-2998; [4]) was 100 µM. For the same molecule, the GI50 (UACC-62; Homo sapiens) was 1.82 µM, the IC50 (UACC-62; Homo sapiens) was 3.98 µM and the CC50 (UACC-62; [4]) was 27.5 µM. It also gave a TGI (UACC-62) of 6.92 µM, a TGI (A549/ATCC) of 100 µM and a GI50 (A549/ATCC; Homo sapiens) of 3.8 µM. It also gave an IC50 (A549/ATCC; Homo sapiens) of 6.31 µM, a CC50 (A549/ATCC; [4]) of 100 µM and a GI50 (MDA-MB-435; Homo sapiens) of 1.29 µM. For the same molecule, the IC50 (MDA-MB-435; Homo sapiens) was 2.57 µM, the CC50 (MDA-MB-435; [4]) was 9.77 µM and the TGI (MDA-MB-435) was 3.55 µM.
